# Measured values: PubChem BioAssay AID2060604 (Molecular Pharmacology Branch, DTP, NCI, 2025)
# Test system: 379773-124-R-J2-PDC complex spheroids, viability % test/control
# Experiment: Anticancer human tumor 379773-124-R-J2-PDC patient-derived endometrial carcinoma cell line growth inhibition [CLK]
# Conditions: for IC50: curve of first compound; for viability, T/C: stronger effect = lower value
# Excerpt: A high-throughput screen of multi-cell type tumor spheroids was designed to identify active combinations of […] and targeted small molecules. Complex spheroids include a stromal component modeled by human endothelial cells (HUVEC) and fibroblasts modeled by human mesenchymal stem cells (MSCs). The concentration ranges selected for each drug and investigational agent were based upon clinically achievable concentrations if the clinical Cmax of the agent was known.
# Compounds. The drugs and investigational agents: cirtuvivint (SM08502; NSC835563), CC-671 (NSC850746), vemurafenib (NSC761431), tapotoclax (NSC804041), sotorasib (NSC818433), adagrasib (NSC831453), MRTX-1133 (NSC836407), BAY2416964 (NSC825713), copanlisib (NSC816437), inavolisib (NSC800729), abemaciclib (NSC768073), osimertinib (NSC779217), entinostat (NSC756642), eltanexor (KPT-8602, NSC794443), venetoclax (NSC766270), ceralasertib (NSC777638), bortezomib (NSC756655), olaparib (NSC753686), talazoparib (NSC767125), alisertib (NSC759677), peposertib (NSC802822), gemcitabine (NSC613327), 5-fluorouracil (NSC19893), SN-38 (NSC673596), oxaliplatin (NSC266046), paclitaxel (NSC125973), and doxorubicin (NSC123127), were obtained from the National Cancer Institute (NCI) Developmental Therapeutics Program Chemical Repository. The FDA-approved anticancer drug set is available from the Developmental Therapeutics Program at https://dtp.cancer.gov/organization/dscb/obtaining/available plates.htm. […] The stock solutions were prepared in dimethyl sulfoxide (DMSO, Sigma-Aldrich, St. Louis, MO, cat. D2650), except for the platinum complexes which were prepared in saline (Quality Biological, Gaithersburg, MD, cat. 114-055-101), at 800-fold the tested concentration and stored at -70 degrees C prior to their use. All drugs and investigational agents were tested over a range starting from a high concentration at or near the clinical Cmax and decreasing in half-log increments. If the clinical Cmax for an agent had not been determined, the highest concentration tested was 10 microM.
# Cell Culture. All cells were maintained in an incubator at 37 degrees C and 5% CO2 with 95% humidity. The PDC lines were cultured according to standard operating procedures established by the NCI PDMR. Briefly, all PDCs were thawed and cultured in Matrigel-coated flasks prepared with a working solution of 1X Ham's F-12 nutrient mix, without supplementation (Invitrogen, Waltham, MA, cat. 11765054), 100 U/mL penicillin-streptomycin (Invitrogen, cat. 15140122), and 2.5% Matrigel (Corning Inc., Corning, NY, cat. 354248) for the first three passages. The 947758-054-R-J2-PDC line was cultured in 6B/Colon 1A media, which includes advanced DMEM/F-12 (Thermo Fisher Scientific, cat. 12634028), 10 mM HEPES (Thermo Fisher Scientific, cat. 15630080), 1X GlutaMAX supplement (Thermo Fisher Scientific, cat. 35050061), 0.1 mg/mL primocin (InvivoGen, cat. ant-pm-2), 10% defined fetal bovine serum, heat inactivated (HyClone Laboratories Inc., cat. SH30070.03HI), 1.25 mM N-Acetyl-L-cysteine (Sigma-Aldrich, cat. A9165), 10 mM nicotinamide (Sigma-Aldrich, cat. N0636), 1X B-27 supplement (Thermo Fisher Scientific, cat. 17504044), 1X N-2 supplement (Thermo Fisher Scientific, cat. 17502048), and 10 microM Y-27632 dihydrochloride (Tocris Bioscience, cat. 1254). The 876862-298-R-J1-PDC was cultured in 6E media, which includes all 6B/Colon 1A media components plus 50% L-WRN conditioned media (ATCC, cat. CRL-3276), 50 ng/mL recombinant human EGF recombinant protein (hEGF; Thermo Fisher Scientific, cat. PHG0311), 10 ng/mL recombinant human fibroblast growth factor 10 (hGFG-10; PeproTech, cat. 100-26), 1 ng/mL recombinant human fibroblast growth factor 2 (hFGF-2; PeproTech, cat. 100-18B), and 1 µM prostaglandin E2 (PGE2; Tocris, cat. 2296). The 227483-062-R1-J1-PDC line was cultured in Panc media, containing all 6E components except hFGF-2, with the addition of 500 nM SB-431542 (Selleckchem, cat. S1067) and 10 nM gastrin (Tocris, cat. 3006). […]
# [1] = second compound 0.0316 µM, first compound 0.0316 µM
# [2] = second compound 0.0316 µM, first compound 0.1 µM
# [3] = second compound 0.0316 µM, first compound 0.316 µM
# [4] = second compound 0.0316 µM, first compound 1 µM
# [5] = second compound 0.0316 µM, first compound 3.16 µM
# [6] = second compound 0.0316 µM, first compound 10 µM
# [7] = second compound 0.1 µM, first compound 0.0316 µM
# [8] = second compound 0.1 µM, first compound 0.1 µM
# [9] = second compound 0.1 µM, first compound 0.316 µM
# [10] = second compound 0.1 µM, first compound 1 µM
# [11] = second compound 0.1 µM, first compound 3.16 µM
# [12] = second compound 0.1 µM, first compound 10 µM
# [13] = second compound 0.316 µM, first compound 0.0316 µM
# [14] = second compound 0.316 µM, first compound 0.1 µM
# [15] = second compound 0.316 µM, first compound 0.316 µM
# [16] = second compound 0.316 µM, first compound 1 µM
# [17] = second compound 0.316 µM, first compound 3.16 µM
# [18] = second compound 0.316 µM, first compound 10 µM
# [19] = second compound 1 µM, first compound 0.0316 µM
# [20] = second compound 1 µM, first compound 0.1 µM
# [21] = second compound 1 µM, first compound 0.316 µM
# [22] = second compound 1 µM, first compound 1 µM
# [23] = second compound 1 µM, first compound 3.16 µM
# [24] = second compound 1 µM, first compound 10 µM
# [25] = second compound 3.16 µM, first compound 0.0316 µM
# [26] = second compound 3.16 µM, first compound 0.1 µM
# [27] = second compound 3.16 µM, first compound 0.316 µM
# [28] = second compound 3.16 µM, first compound 1 µM
# [29] = second compound 3.16 µM, first compound 3.16 µM
# [30] = second compound 3.16 µM, first compound 10 µM
# [31] = second compound 10 µM, first compound 0.0316 µM
# [32] = second compound 10 µM, first compound 0.1 µM
# [33] = second compound 10 µM, first compound 0.316 µM
# [34] = second compound 10 µM, first compound 1 µM
# [35] = second compound 10 µM, first compound 3.16 µM
# [36] = second compound 10 µM, first compound 10 µM
# 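Also: compound exposure lasted seven days before the viability readout.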
# 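For viability, T/C in this document: 100% = DMSO vehicle control wells.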
structure (smiles),measurement,setting,value
CCCS(=O)(=O)Nc1ccc(F)c(C(=O)c2c[nH]c3ncc(-c4ccc(Cl)cc4)cc23)c1F + CN1CCN(c2cc(C(=O)Nc3cc4cc(-c5cnn(C)c5)ccc4cn3)ccn2)CC1,IC50,second compound 0.0316 µM,> 10000 nM
same,IC50,second compound 0.1 µM,> 10000 nM
same,IC50,second compound 0.316 µM,< 31.6 nM
same,IC50,second compound 1 µM,< 31.6 nM
same,IC50,second compound 3.16 µM,< 31.6 nM
same,IC50,second compound 10 µM,< 31.6 nM
same,"viability, T/C",[1],80.5%
same,"viability, T/C",[2],86.1%
same,"viability, T/C",[3],94.8%
same,"viability, T/C",[4],90.1%
same,"viability, T/C",[5],82.4%
same,"viability, T/C",[6],58.7%
same,"viability, T/C",[7],83.6%
same,"viability, T/C",[8],65.8%
same,"viability, T/C",[9],75.8%
same,"viability, T/C",[10],70.2%
same,"viability, T/C",[11],68.9%
same,"viability, T/C",[12],54.8%
same,"viability, T/C",[13],26.6%
same,"viability, T/C",[14],27.3%
same,"viability, T/C",[15],30.2%
same,"viability, T/C",[16],27.2%
same,"viability, T/C",[17],29.8%
same,"viability, T/C",[18],18.3%
same,"viability, T/C",[19],0.16%
same,"viability, T/C",[20],0.29%
same,"viability, T/C",[21],0.14%
same,"viability, T/C",[22],0.13%
same,"viability, T/C",[23],1.03%
same,"viability, T/C",[24],0.09%
same,"viability, T/C",[25],0.1%
same,"viability, T/C",[26],0.48%
same,"viability, T/C",[27],0.12%
same,"viability, T/C",[28],0.91%
same,"viability, T/C",[29],0.09%
same,"viability, T/C",[30],0.51%
same,"viability, T/C",[31],0.14%
same,"viability, T/C",[32],1.01%
same,"viability, T/C",[33],0.7%
same,"viability, T/C",[34],2.8%
same,"viability, T/C",[35],0.19%
same,"viability, T/C",[36],0.29%
COC1C=CCC(C)C(C)S(=O)(=O)NC(=O)c2ccc3c(c2)N(CC2CCC21)CC1(CCCc2cc(Cl)ccc21)CO3 (centres undefined) + CN1CCN(c2cc(C(=O)Nc3cc4cc(-c5cnn(C)c5)ccc4cn3)ccn2)CC1,IC50,second compound 0.0316 µM,4970 nM
same,IC50,second compound 0.1 µM,4750 nM
same,IC50,second compound 0.316 µM,< 31.6 nM
same,IC50,second compound 1 µM,< 31.6 nM
same,IC50,second compound 3.16 µM,< 31.6 nM
same,IC50,second compound 10 µM,< 31.6 nM
same,"viability, T/C",[1],87.2%
same,"viability, T/C",[2],97.5%
same,"viability, T/C",[3],74.6%
same,"viability, T/C",[4],86%
same,"viability, T/C",[5],79.7%
same,"viability, T/C",[6],4.02%
same,"viability, T/C",[7],77.2%
same,"viability, T/C",[8],73.5%
same,"viability, T/C",[9],78.7%
same,"viability, T/C",[10],78.2%
same,"viability, T/C",[11],76%
same,"viability, T/C",[12],2.54%
same,"viability, T/C",[13],24.8%
same,"viability, T/C",[14],29.9%
same,"viability, T/C",[15],30.9%
same,"viability, T/C",[16],26.5%
same,"viability, T/C",[17],29.6%
same,"viability, T/C",[18],1.06%
same,"viability, T/C",[19],0.39%
same,"viability, T/C",[20],0.17%
same,"viability, T/C",[21],0.35%
same,"viability, T/C",[22],0.18%
same,"viability, T/C",[23],0.65%
same,"viability, T/C",[24],0.11%
same,"viability, T/C",[25],0.12%
same,"viability, T/C",[26],0.14%
same,"viability, T/C",[27],1.19%
same,"viability, T/C",[28],0.82%
same,"viability, T/C",[29],0.11%
same,"viability, T/C",[30],0.1%
same,"viability, T/C",[31],0.48%
same,"viability, T/C",[32],0.72%
same,"viability, T/C",[33],0.18%
same,"viability, T/C",[34],1.21%
same,"viability, T/C",[35],0.37%
same,"viability, T/C",[36],0.23%
